The format of series [1] is physicochemical. To be noted: pH 7.8. On the procedure: Each lyophilized peptide was weighed in an amber vial. A calculated volume of phosphate buffered solution at pH 7.8 was added in order to directly obtain 10 mM Stock Solutions. The recovered suspensions were stirred for 30 minutes by orbital shaker incubator at 37° C. Subsequent dilutions were performed to obtain the more diluted stock solutions for the less soluble compounds.
In order to evaluate the stability and the solubility, all the stock solutions were stored at 25° C. The title was evaluated by UHPLC-MS analysis in comparison with the standard solutions, at 3 time points: T0, 3 days, 1 week.
The chromatographic profile was evaluated for the quantitative assay while the MS spectra were detected as support in the stability studies.
Each peptide was weighed and directly diluted at 100 μM with the phosphate buffer at pH 7.8. The solutions were stirred for 5 minutes by vortex and heated at 37° C. for 20 minutes. The obtained standard solution was stored at 25° C. in the dark under controlled temperature.
A portion of the stock solutions was collected in an amber vial and diluted to 100 μM by phosphate buffer at pH 7.8 (dilution factor, 1:100).
Reversed-phase UHPLC was performed operating at a flow rate of 0.3 ml/min with a Luna Omega Polar C18 column ([…] 1.6 μm, 2.1×100 mm). Solvent A was 0.5% Formic Acid in water and solvent B was 0.5% Formic Acid in acetonitrile. First, samples were loaded onto the column and washed isocratically at 10% B for 3 min. Then, a gradient of 10-95% B was run over 22 min, held at 95% for 2 min, and then decreased to 10% over 1 min and held, for the pressure stabilization, for 5 min. UV Absorption was monitored by DAD (220-400 nm). ESI-MS ion trap was used for the monitoring of TIC.

The nature of series [2]: Isoelectric point, log D and log P (SiriusT3). As to conditions: for IP (isoelectric point): 25±1° C., 0.15 M KCl. It is filed as physicochemical. On the procedure: The main physicochemical properties (Isoelectric point (IP), log D (7.4) and log P) of the peptides of Table 8 below were determined by using the SiriusT3 apparatus (Sirius Analytical Instruments Ltd., East Sussex, UK) equipped with an Ag/AgCl double junction reference pH electrode, a Sirius D-PAS spectrometer and a turbidity sensing device. […] An overhead stirrer was used and a temperature probe (Peltier controller) monitored the temperature during the course of the titration. The titration experiments were conducted in 0.15 M KCl Ionic Strength Adjusted solution (ISA water) under a nitrogen atmosphere at a temperature of 25±1° C. All tests were performed using standardized 0.5 M KOH and 0.5 M HCl as titration reagents, for the partition coefficient tests a saturated Octanol in ISA water (5% of ISA water) was used as partition solvent. The pKas were determined by potentiometric method by pH-metric titration. The powder (around 0.5 mg) was dissolved in 1.5 ml of ISA water and the titration was performed in triplicate in the pH range 2.0−12.0.

Series [3] concerns the target IL-17RA/IL17RC dimerization induced by IL-17A (Homo sapiens, UniProt Q16552). Briefly: IL-17RA/IL17RC dimerization assay in response to IL-17A (PathHunter Cytokine Receptor Assay). As to conditions: IL-17A at EC80; read-out: IC50 in IL-17RA/IL7RC dimerization assay. It is filed as cell-based. Put shortly: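 PathHunter cells with IL-17RA and IL-17RC tagged for β-galactosidase complementation were preincubated 60 min with peptide (1% vehicle). IL-17A was then added at EC80 for 6–16 h at 37 °C, and chemiluminescence was read. Inhibition is relative to the EC80 and vehicle controls.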

The mark [4] stands for this setting: octanol/ISA water, read-out: logP.
[5] abbreviates: pH 7.4, pH 7.4, octanol/ISA water, read-out: Log D (7.4).

pIC50: −log10 of the molar value. Like-named read-outs stand apart in the source and are kept apart here. Residues, ends and D or L forms follow the SMILES beside them.

IL-17RA/IL17RC dimerization induced by IL-17A, sequence (Q16552 24-155): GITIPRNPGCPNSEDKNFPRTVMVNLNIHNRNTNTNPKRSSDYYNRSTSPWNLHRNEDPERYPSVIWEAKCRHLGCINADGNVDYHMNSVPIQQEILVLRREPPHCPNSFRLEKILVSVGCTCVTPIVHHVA

Compound `CC[C@H](C)[C@H](NC(C)=O)C(=O)N[C@@H](CCSC)C(=O)N[C@H](C(=O)N[C@H](C(=O)N[C@H](C(=O)N1CCC[C@H]1C(=O)N[C@@H](C)C(=O)N[C@@H](CC(=O)O)C(=O)N[C@@H](CC(C)C)C(=O)N[C@@H](Cc1c[nH]c2ccccc12)C(=O)N[C@@H](CC(=O)O)C(=O)N[C@@H](Cc1c[nH]c2ccccc12)C(=O)N[C@H](C(=O)N[C@@H](CC(N)=O)C(=O)N[C@@H](CCCCN)C(N)=O)[C@@H](C)CC)[C@@H](C)CC)[C@@H](C)O)C(C)C` [SEQ ID NO: 3] (Ac-IMVTIPADLWDWINK-NH2) came in with a solubility in series [1] of at least 0.01 mM. Further, the “IP (isoelectric point)” value in series [2] was 3.90. Also, the logP in series [2] (setting [4]) was 1.33. Further, the logD in series [2] (setting [5]) was -1.87. Further, in series [3], the pIC50 is above 6.40.

`CC[C@H](C)[C@H](NC(=O)[C@H](Cc1c[nH]c2ccccc12)NC(=O)[C@H](CC(=O)O)NC(=O)[C@H](Cc1c[nH]c2ccccc12)NC(=O)[C@H](CC(C)C)NC(=O)[C@H](CC(=O)O)NC(=O)[C@H](C)NC(=O)[C@@H]1CCCN1C(=O)[C@@H](NC(=O)[C@@H](NC(=O)[C@@H](NC(=O)[C@H](CCSC)NC(=O)[C@@H](NC(C)=O)C(C)C)C(C)C)[C@@H](C)O)[C@@H](C)CC)C(=O)N[C@@H](CC(N)=O)C(=O)N[C@@H](CCCCN)C(N)=O` [SEQ ID NO: 4] (Ac-VMVTIPADLWDWINK-NH2) gave a solubility in series [1] of at least 0.02 mM. In addition, in series [2], the “IP (isoelectric point)” value is given as 3.90. Further, the logP in series [2] (setting [4]) is 1.88. Besides, the logD in series [2] (setting [5]) was -1.32. Also, the pIC50 in series [3] was above 7.00.

Compound `CC[C@H](C)[C@H](NC(C)=O)C(=O)N[C@@H](Cc1c[nH]cn1)C(=O)N[C@H](C(=O)N[C@H](C(=O)N[C@H](C(=O)N1CCC[C@H]1C(=O)N[C@@H](C)C(=O)N[C@@H](CCC(=O)O)C(=O)N[C@@H](CC(C)C)C(=O)N[C@@H](Cc1c[nH]c2ccccc12)C(=O)N[C@@H](CC(=O)O)C(=O)N[C@@H](Cc1c[nH]c2ccccc12)C(=O)N[C@H](C(=O)N[C@@H](CC(N)=O)C(=O)N[C@@H](CCCCN)C(N)=O)[C@@H](C)CC)[C@@H](C)CC)[C@@H](C)O)C(C)C` [SEQ ID NO: 5] (Ac-IHVTIPAELWDWINK-NH2) gave a solubility in series [1] of at least 1 mM. In series [2], the “IP (isoelectric point)” value is reported as 5.19. Also, the logP in series [2] (setting [4]) is -0.51. Moreover, the logD in series [2] (setting [5]) was -1.26. Also, the pIC50 in series [3] was above 7.00.

In turn, `CC[C@H](C)[C@H](NC(C)=O)C(=O)N[C@@H](Cc1c[nH]cn1)C(=O)N[C@H](C(=O)N[C@H](C(=O)N[C@H](C(=O)N1CCC[C@H]1C(=O)N[C@@H](C)C(=O)N[C@@H](CC(=O)O)C(=O)N[C@@H](CC(C)C)C(=O)N[C@@H](Cc1ccc(O)cc1)C(=O)N[C@@H](CC(=O)O)C(=O)N[C@@H](Cc1c[nH]c2ccccc12)C(=O)N[C@H](C(=O)N[C@@H](CC(N)=O)C(=O)N[C@@H](CCCCN)C(N)=O)[C@@H](C)CC)[C@@H](C)CC)[C@@H](C)O)C(C)C` [SEQ ID NO: 6] (Ac-IHVTIPADLYDWINK-NH2) displayed a solubility in series [1] above 10 mM. Further, in series [2], the “IP (isoelectric point)” value is 5.14. The logP in series [2] (logP) was -0.37. Besides, the logD in series [2] (pH 7.4, Log D (7.4)) is -3.65. Further, the pIC50 in series [3] is above 6.40.

Compound `CC[C@H](C)[C@H](NC(C)=O)C(=O)N[C@@H](Cc1c[nH]cn1)C(=O)N[C@H](C(=O)N[C@H](C(=O)N[C@H](C(=O)N1CCC[C@H]1C(=O)N[C@@H](C)C(=O)N[C@@H](CC(=O)O)C(=O)N[C@@H](CC(C)C)C(=O)N[C@@H](Cc1c[nH]c2ccccc12)C(=O)N[C@@H](CC(=O)O)C(=O)N[C@@H](Cc1c[nH]c2ccccc12)C(=O)N[C@H](C(=O)N[C@@H](CC(N)=O)C(=O)N[C@@H](CCCCN)C(N)=O)C(C)C)[C@@H](C)CC)[C@@H](C)O)C(C)C` [SEQ ID NO: 8] (Ac-IHVTIPADLWDWVNK-NH2) displayed a solubility in series [1] above 10 mM. Also, the “IP (isoelectric point)” value in series [2] is 5.14. Further, the logP in series [2] (logP) was -5.12. Also, in series [2] (pH 7.4, Log D (7.4)), the logD was -4.06. Moreover, the pIC50 in series [3] was above 6.70.

For `CC[C@H](C)[C@H](NC(C)=O)C(=O)N[C@@H](Cc1c[nH]cn1)C(=O)N[C@H](C(=O)N[C@H](C(=O)N[C@H](C(=O)N1CCC[C@H]1C(=O)N[C@@H](C)C(=O)N[C@@H](CC(=O)O)C(=O)N[C@@H](CC(C)C)C(=O)N[C@@H](Cc1c[nH]c2ccccc12)C(=O)N[C@@H](CC(=O)O)C(=O)N[C@@H](Cc1c[nH]c2ccccc12)C(=O)N[C@H](C(=O)N[C@@H](CCCNC(=N)N)C(=O)N[C@@H](CCCCN)C(N)=O)[C@@H](C)CC)[C@@H](C)CC)[C@@H](C)O)C(C)C` [SEQ ID NO: 9] (Ac-IHVTIPADLWDWIRK-NH2), the solubility in series [1] was above 10 mM. Moreover, the “IP (isoelectric point)” value in series [2] is reported as 8.28. Further, the logP in series [2] (logP) is -0.53. Besides, the logD in series [2] (pH 7.4, Log D (7.4)) is -1.08. For the same compound, in series [3], the pIC50 is above 6.52.

The compound `CC[C@H](C)[C@H](NC(C)=O)C(=O)N[C@@H](Cc1c[nH]cn1)C(=O)N[C@H](C(=O)N[C@H](C(=O)N[C@H](C(=O)N1CCC[C@H]1C(=O)N[C@@H](C)C(=O)N[C@@H](CC(=O)O)C(=O)N[C@@H](CC(C)C)C(=O)N[C@@H](Cc1c[nH]c2ccccc12)C(=O)N[C@@H](CC(=O)O)C(=O)N[C@@H](Cc1c[nH]c2ccccc12)C(=O)N[C@H](C(=O)N[C@@H](CC(N)=O)C(=O)N[C@@H](CCCNC(=N)N)C(N)=O)[C@@H](C)CC)[C@@H](C)CC)[C@@H](C)O)C(C)C` [SEQ ID NO: 10] (Ac-IHVTIPADLWDWINR-NH2) displayed a solubility in series [1] above 10 mM. The “IP (isoelectric point)” value in series [2] amounted to 5.14. The compound also registered a logP in series [2] (logP) of 0.09. The logD in series [2] (pH 7.4, Log D (7.4)) was -3.66. The pIC50 in series [3] was above 6.40.

On to `CC[C@H](C)[C@H](NC(C)=O)C(=O)N[C@@H](Cc1c[nH]cn1)C(=O)N[C@H](C(=O)N[C@H](C(=O)N[C@H](C(=O)N1CCC[C@H]1C(=O)N[C@@H](C)C(=O)N[C@@H](CC(=O)O)C(=O)N[C@@H](CC(C)C)C(=O)N[C@@H](Cc1c[nH]c2ccccc12)C(=O)N[C@@H](CC(=O)O)C(=O)N[C@@H](Cc1c[nH]c2ccccc12)C(=O)N[C@H](C(=O)N[C@@H](CC(N)=O)C(=O)N[C@@H](CCC(=O)O)C(N)=O)[C@@H](C)CC)[C@@H](C)CC)[C@@H](C)O)C(C)C` [SEQ ID NO: 12, IHVTIPADLWDWINE] (Ac-IHVTIPADLWDWINE-NH2), for which the solubility in series [1] was at least 0.01 mM. Moreover, the “IP (isoelectric point)” value in series [2] stood at 3.66. Besides, the logP in series [2] (logP) worked out at 1.31. For the same compound, the logD in series [2] (pH 7.4, Log D (7.4)) is -5.24. Also, the pIC50 in series [3] is above 6.70.

In series [1], `CC[C@H](C)[C@H](NC(C)=O)C(=O)N[C@@H](Cc1c[nH]cn1)C(=O)N[C@H](C(=O)N[C@H](C(=O)N[C@H](C(=O)N1CCC[C@H]1C(=O)N[C@@H](C)C(=O)N[C@@H](CC(=O)O)C(=O)N[C@@H](CC(C)C)C(=O)N[C@@H](Cc1c[nH]c2ccccc12)C(=O)N[C@@H](CC(=O)O)C(=O)N[C@@H](Cc1c[nH]c2ccccc12)C(=O)N[C@H](C(=O)N[C@@H](CCC(=O)O)C(=O)N[C@@H](CCC(=O)O)C(N)=O)C(C)C)[C@@H](C)CC)[C@@H](C)O)C(C)C` [SEQ ID NO: 15] (Ac-IHVTIPADLWDWVEE-NH2) showed a solubility of at least 0.05 mM. The “IP (isoelectric point)” value in series [2] stood at 3.51. The logP in series [2] (logP) was 1.66. In series [2] (pH 7.4, Log D (7.4)), this compound came in with a logD of 1.88. Further, the pIC50 in series [3] was above 6.40.

`CC[C@H](C)[C@H](NC(=O)[C@H](Cc1c[nH]c2ccccc12)NC(=O)[C@H](CCC(=O)O)NC(=O)[C@H](Cc1ccc(O)cc1)NC(=O)[C@H](CC(C)C)NC(=O)[C@H](CC(=O)O)NC(=O)[C@H](C)NC(=O)[C@@H]1CCCN1C(=O)[C@@H](NC(=O)[C@@H](NC(=O)[C@@H](NC(=O)[C@H](CCSC)NC(=O)[C@@H](NC(C)=O)C(C)C)C(C)C)[C@@H](C)O)[C@@H](C)CC)C(=O)N[C@@H](CC(N)=O)C(=O)N[C@@H](CCCCN)C(N)=O` [SEQ ID NO: 16] (Ac-VMVTIPADLYEWINK-NH2) displayed a solubility in series [1] above 10 mM. Further, the “IP (isoelectric point)” value in series [2] is given as 5.19. For the same compound, in series [2] (setting [4]), the log partition coefficient (logP) was found to be 0.13. In addition, the logD in series [2] (setting [5]) is 0.24. Moreover, the pIC50 in series [3] is above 6.40.

What is called solubility is the dissolved amount per volume that the medium holds. A lower solubility goes with a poorly soluble substance. What is called logP is a log measure of how a compound divides between an organic and an aqueous phase.

(Values after patent US11236129B2, “IL-17A binding peptides and medical uses thereof” (Dompe' Farmaceutici S.P.A., priority 2018, dated 2022).)
